The target in data set [1] is T1, recombinant human transglutaminase 2 (Homo sapiens, UniProt P21980).
T1 construct: purchased Zedira T022
T1 sequence (P21980 1-687): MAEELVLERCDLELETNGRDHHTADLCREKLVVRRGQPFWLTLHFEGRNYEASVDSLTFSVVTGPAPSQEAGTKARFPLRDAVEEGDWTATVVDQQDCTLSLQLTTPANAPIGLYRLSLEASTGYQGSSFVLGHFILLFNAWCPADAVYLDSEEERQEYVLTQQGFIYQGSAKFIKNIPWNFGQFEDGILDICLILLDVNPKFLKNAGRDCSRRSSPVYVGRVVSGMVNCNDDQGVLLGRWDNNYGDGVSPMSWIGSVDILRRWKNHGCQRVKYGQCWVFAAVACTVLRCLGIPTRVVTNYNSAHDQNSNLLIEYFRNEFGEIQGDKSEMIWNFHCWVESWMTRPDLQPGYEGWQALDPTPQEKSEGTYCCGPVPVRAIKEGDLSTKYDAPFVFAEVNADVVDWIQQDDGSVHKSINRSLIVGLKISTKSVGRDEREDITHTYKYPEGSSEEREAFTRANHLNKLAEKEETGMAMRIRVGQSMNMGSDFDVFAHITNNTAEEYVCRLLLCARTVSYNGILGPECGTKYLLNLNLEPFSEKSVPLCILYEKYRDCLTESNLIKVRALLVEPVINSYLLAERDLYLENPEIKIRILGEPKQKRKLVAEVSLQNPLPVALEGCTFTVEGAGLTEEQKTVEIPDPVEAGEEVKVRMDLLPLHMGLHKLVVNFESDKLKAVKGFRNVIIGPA
As to the kind of experiment: Transglutaminase assay (DCC-assay): incorporation of dansylcadaverine into dimethylcasein. It is filed as biochemical. The note with it: recombinant human TG2 10 nM; dansylcadaverine incorporation into dimethylcasein; read-out: IC50 TG2. A digest of the protocol:
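Recombinant human TG2 (10 nM final) incorporates dansylcadaverine into N,N-dimethylcasein. Reaction mix: 50 mM Tris-HCl, 10 mM CaCl2, 10 mM glutathione, 2.5% glycerol, 16.7 µM dansylcadaverine, 4 µM dimethylcasein, 200 mM NaCl, pH 8.0. Fluorescence (ex 330/em 500 nm) was followed 30 min at 37 °C; the 20–30 min slope, expressed as % of 2% DMSO control, gave IC50.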

A short description of data set [2]: logD by shake flask method (octanol / PBS pH 7.4, HPLC). In kind it is physicochemical. Conditions: octanol / PBS pH 7.4, shake flask. An outline of the steps:
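Shake-flask partition of compound between octanol and phosphate-buffered saline at pH 7.4, with each phase quantified by HPLC to give LogD.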

The nature of data set [3]: Caco-2 permeability assay (CacoReady kit). In kind it is in vitro ADME. Conditions: human, Caco-2, Caco-2 barrier, CacoReady kit; above 1×10^−6 cm/s classified as permeable. A digest of the protocol:
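Papp values come from Caco-2 barrier studies intended to predict oral bioavailability; the manufacturer's procedure for the ready-made kit was followed.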
(In general: Passage across Caco-2 layers is used to estimate intestinal permeability.)

For `CNC(=O)C(=O)CC[C@H](NC(=O)c1oc2ccccc2c1C)C(=O)Nc1cccn(CC(=O)NC2C3CC4CC2CC(Cl)(C4)C3)c1=O` (stereo partly drawn) [II-70, (S)-N1-(1-(2-(5-chloroadamantane-2-amino)-2-oxoethyl)-2-oxo-1,2-dihydropyridin-3-yl)-N6-methyl-2-(3-methylbenzofuran-2-carboxamido)-5-oxohexanediamide], the concentration for half-maximal inhibition (IC50) in data set [1] was less than 40 nM. For the same compound, the pH-dependent lipophilicity (logD) in data set [2] lay in the range of 1 to 3. This compound also showed a Papp in data set [3] of 1 to 10 ×10⁻⁶ cm/s.
In the same order, the values of `CNC(=O)C(=O)CC[C@H](NC(=O)c1oc2ccccc2c1C)C(=O)Nc1cccn(CC(=O)NC2C3CC4CC2CC(Br)(C4)C3)c1=O` (stereo partly drawn) [II-71, (S)-N1-(1-(2-(5-bromoadamantane-2-amino)-2-oxoethyl)-2-oxo-1,2-dihydropyridin-3-yl)-N6-methyl-2-(3-methylbenzofuran-2-carboxamido)-5-oxohexanediamide] are less than 40 nM, 1 to 3 and 1 to 10 ×10⁻⁶ cm/s.
On to `CNC(=O)C(=O)CC[C@H](NC(=O)c1oc2ccccc2c1C)C(=O)Nc1cccn(CC(=O)NC2C3CC4CC2CC(C)(C4)C3)c1=O` (stereo partly drawn) [II-72, (S)-N1-(1-(2-(5-methyladamantane-2-amino)-2-oxoethyl)-2-oxo-1,2-dihydropyridin-3-yl)-N6-methyl-2-(3-methylbenzofuran-2-carboxamido)-5-oxohexanediamide], for which the half-inhibitory concentration (IC50) in data set [1] is less than 40 nM. Also, the log distribution coefficient (logD) in data set [2] lay within 3 to 5. This compound also showed an apparent permeability coefficient (Papp) in data set [3] of less than 1 ×10⁻⁶ cm/s.
On to `CNC(=O)C(=O)CC[C@H](NC(=O)c1oc2ccccc2c1C)C(=O)Nc1cccn(CC(=O)NC2(C#N)C3CC4CC(C3)CC2C4)c1=O` (stereo partly drawn) [II-73, (S)-N1-(1-(2-(2-carbonitrileadamantane-2-amino)-2-oxoethyl)-2-oxo-1,2-dihydropyridin-3-yl)-N6-methyl-2-(3-methylbenzofuran-2-carboxamido)-5-oxohexanediamide], for which, in data set [1], the IC50 was 40 to 400 nM. This compound displayed a pH-dependent lipophilicity (logD) in data set [2] of 1 to 3. Also, the Papp in data set [3] was less than 1 ×10⁻⁶ cm/s.
In the same order, the values of `CNC(=O)C(=O)CC[C@H](NC(=O)c1oc2ccccc2c1C)C(=O)Nc1cccn(CC(=O)NC2(C(=O)OC)C3CC4CC(C3)CC2C4)c1=O` (stereo partly drawn) [II-74, (S)-N1-(1-(2-(2-methyladamantane-2-carboxylate-2-amino)-2-oxoethyl)-2-oxo-1,2-dihydropyridin-3-yl)-N6-methyl-2-(3-methylbenzofuran-2-carboxamido)-5-oxohexanediamide] are 400 to 2500 nM, 1 to 3 and less than 1 ×10⁻⁶ cm/s.
The matching figures for `CNC(=O)C(=O)CC[C@H](NC(=O)c1oc2ccccc2c1C)C(=O)Nc1cccn(CC(=O)NCC23CC4CC(CC(C4)C2)C3)c1=O` [II-87, (S)-N1-(1-(2-(1-adamantylmethylamino)-2-oxoethyl)-2-oxo-1,2-dihydropyridin-3-yl)-N6-methyl-2-(3-methylbenzofuran-2-carboxamido)-5-oxohexanediamide]: 40 to 400 nM, 3 to 5 and 1 to 10 ×10⁻⁶ cm/s.
In the same order, the values of `CNC(=O)C(=O)CC[C@H](NC(=O)c1cc2ccccc2o1)C(=O)Nc1cccn(CC(=O)NC(C)C23CC4CC(CC(C4)C2)C3)c1=O` (stereo partly drawn) [II-88] are 40 to 400 nM, 3 to 5 and less than 1 ×10⁻⁶ cm/s.
In the case of `CNC(=O)C(=O)CC[C@H](NC(=O)c1oc2ccccc2c1C)C(=O)Nc1cccn(CC(=O)N[C@H]2C[C@H]3CC[C@@H]2C3)c1=O` [II-90, (S)-N1-(1-(2-((1R,2S,4S)-bicyclo[2.2.1]heptan-2-ylamino)-2-oxoethyl)-2-oxo-1,2-dihydropyridin-3-yl)-N6-methyl-2-(3-methylbenzofuran-2-carboxamido)-5-oxohexanediamide], the half-maximal inhibitory concentration (IC50) in data set [1] is 40 to 400 nM. Further, the logD in data set [2] was in the range of 1 to 3. This compound also had an apparent permeability (Papp) in data set [3] of less than 1 ×10⁻⁶ cm/s.
Take `CNC(=O)C(=O)CC[C@H](NC(=O)c1oc2ccccc2c1C)C(=O)Nc1cccn(CC(=O)N[C@H]2C[C@H]3CC[C@@]2(C)C3(C)C)c1=O` [II-92, (S)-N1-methyl-5-(3-methylbenzofuran-2-carboxamido)-2-oxo-N6-(2-oxo-1-(2-oxo-2-((1S,2S,4R)-1,7,7-trimethylbicyclo[2.2.1]heptan-2-ylamino)ethyl)-1,2-dihydropyridin-3-yl)hexanediamide]: the 50% inhibitory concentration (IC50) in data set [1] lay within 40 to 400 nM. In data set [2], the logD was 3 to 5. This compound returned an apparent permeability coefficient (Papp) in data set [3] of 1 to 10 ×10⁻⁶ cm/s.
The matching figures for `CNC(=O)C(=O)CC[C@H](NC(=O)c1oc2ccccc2c1C)C(=O)Nc1cccn(CC(=O)N[C@@H]2C[C@H]3CC[C@@H]2C3)c1=O` [II-94, (S)-N1-(1-(2-((1R,2R,4S)-bicyclo[2.2.1]heptan-2-ylamino)-2-oxoethyl)-2-oxo-1,2-dihydropyridin-3-yl)-N6-methyl-2-(3-methylbenzofuran-2-carboxamido)-5-oxohexanediamide]: less than 40 nM, 1 to 3 and 1 to 10 ×10⁻⁶ cm/s.
For the compound `CNC(=O)C(=O)CC[C@H](NC(=O)c1oc2ccccc2c1C)C(=O)Nc1cccn(CC(=O)NC23CCC(CC2)C3)c1=O` [II-95, (S)-N1-(1-(2-(bicyclo[2.2.1]heptan-1-ylamino)-2-oxoethyl)-2-oxo-1,2-dihydropyridin-3-yl)-N6-methyl-2-(3-methylbenzofuran-2-carboxamido)-5-oxohexanediamide], the IC50 in data set [1] lay within 40 to 400 nM. This compound also had a logD in data set [2] of 1 to 3. For the same compound, in data set [3], the Papp is 1 to 10 ×10⁻⁶ cm/s.
The matching figures for `CNC(=O)C(=O)CC[C@H](NC(=O)c1oc2ccccc2c1C)C(=O)Nc1cccn(CC(=O)NC2C3CCC2CC3)c1=O` (stereo partly drawn) [II-96, (S)-N1-(1-(2-(bicyclo[2.2.1]heptan-7-ylamino)-2-oxoethyl)-2-oxo-1,2-dihydropyridin-3-yl)-N6-methyl-2-(3-methylbenzofuran-2-carboxamido)-5-oxohexanediamide]: 40 to 400 nM, 1 to 3 and 1 to 10 ×10⁻⁶ cm/s.
In the same order, the values of `CNC(=O)C(=O)CC[C@H](NC(=O)c1oc2ccccc2c1C)C(=O)Nc1cccn(CC(=O)NC2CC3C=CC2C3)c1=O` (stereo partly drawn) [II-97, (S)-N1-(1-(2-(bicyclo[2.2.1]hept-5-en-2-ylamino)-2-oxoethyl)-2-oxo-1,2-dihydropyridin-3-yl)-N6-methyl-2-(3-methylbenzofuran-2-carboxamido)-5-oxohexanediamide] are 40 to 400 nM, 1 to 3 and 1 to 10 ×10⁻⁶ cm/s.
In the same order, the values of `CNC(=O)C(=O)CC[C@H](NC(=O)c1oc2ccccc2c1C)C(=O)Nc1cccn(CC(=O)NC2CC3CCC2CC3)c1=O` (stereo partly drawn) [II-98, (2S)-N1-(1-(2-(bicyclo[2.2.2]octan-2-ylamino)-2-oxoethyl)-2-oxo-1,2-dihydropyridin-3-yl)-N6-methyl-2-(3-methylbenzofuran-2-carboxamido)-5-oxohexanediamide] are 40 to 400 nM, 1 to 3 and 1 to 10 ×10⁻⁶ cm/s.
On to `CNC(=O)C(=O)CC[C@H](NC(=O)c1oc2ccccc2c1C)C(=O)Nc1cccn(CC(=O)N[C@@H]2C[C@H]3CC[C@]2(C)C3(C)C)c1=O` [II-99, (S)-N1-methyl-5-(3-methylbenzofuran-2-carboxamido)-2-oxo-N6-(2-oxo-1-(2-oxo-2-((1R,2R,4R)-1,7,7-trimethylbicyclo[2.2.1]heptan-2-ylamino)ethyl)-1,2-dihydropyridin-3-yl)hexanediamide], for which the IC50 in data set [1] is 40 to 400 nM. This compound yielded a logD in data set [2] of 3 to 5. This compound also yielded a Papp in data set [3] of 1 to 10 ×10⁻⁶ cm/s.
In the same order, the values of `CNC(=O)C(=O)CC[C@H](NC(=O)c1oc2ccccc2c1C)C(=O)Nc1cccn(CC(=O)N[C@@H]2C[C@@H]3C[C@H]([C@H]2C)C3(C)C)c1=O` [II-100, (S)-N1-methyl-5-(3-methylbenzofuran-2-carboxamido)-2-oxo-N6-(2-oxo-1-(2-oxo-2-((1R,2R,3R,5S)-2,6,6-trimethylbicyclo[3.1.1]heptan-3-ylamino)ethyl)-1,2-dihydropyridin-3-yl)hexanediamide] are 40 to 400 nM, 3 to 5 and 1 to 10 ×10⁻⁶ cm/s.
The matching figures for `CNC(=O)C(=O)CC[C@H](NC(=O)c1oc2ccccc2c1C)C(=O)Nc1cccn(CC(=O)N[C@H]2C[C@H]3C[C@@H]([C@@H]2C)C3(C)C)c1=O` [II-101, (S)-N1-methyl-5-(3-methylbenzofuran-2-carboxamido)-2-oxo-N6-(2-oxo-1-(2-oxo-2-((1S,2S,3S,5R)-2,6,6-trimethylbicyclo[3.1.1]heptan-3-ylamino)ethyl)-1,2-dihydropyridin-3-yl)hexanediamide]: 40 to 400 nM, 3 to 5 and 1 to 10 ×10⁻⁶ cm/s.

As usually defined, the IC50 is the concentration at which inhibition is half-maximal. Broadly, the logD is the decadic logarithm of the distribution of all forms, ionised or not, between an organic phase and buffer at a given pH. A higher logD goes with a more lipophilic compound. What is called Papp is a coefficient for how fast a substance crosses the barrier. High values mean ready permeation, low ones poor permeation.
